Results taken from US12043600B2, “Microbiocidal compounds” (SYNGENTA CROP PROTECTION AG, priority 2018, dated 2024).
Read-outs that look alike come from different tables or passages of the source.

How the values were obtained:
[1] = system: Magnaporthe grisea (Pyricularia oryzae); experiment: whole plant or invertebrate; type: in vivo; settings: foliar, read-out: control of Magnaporthe grisea
Plasmopara viticola = experiment: whole plant or invertebrate; type: in vivo; settings: foliar, read-out: control of Plasmopara viticola
Pyrenophora teres = experiment: Pyrenophora teres/Barley/Leaf Disc Preventative (Net Blotch); type: in vivo; settings: foliar, 200 ppm, barley leaf disc preventative, compared to untreated control, read-out: control of Pyrenophora teres
In short: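 Formulated compound, diluted in water, sprayed onto barley cv. Hasso leaf segments on agar; spore suspension inoculation followed 2 days after application. Results expressed as percentage disease control.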

[2] = system: Mycosphaerella graminicola (Septoria tritici); experiment: Mycosphaerella graminicola (Septoria tritici)/Liquid Culture (Septoria Blotch); type: cell-based; settings: Zymoseptoria tritici; 20 ppm; liquid culture; compared to untreated control
In short: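 Conidia from cryogenic storage mixed into potato dextrose broth and added to microtiter wells already holding DMSO solutions of test compound. Activity expressed as percentage disease control.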

[3] = system: Phaeosphaeria nodorum (Septoria nodorum); experiment: Phaeosphaeria nodorum (Septoria nodorum)/Wheat/Leaf Disc Preventative (Glume Blotch); type: in vivo; settings: Parastagonospora nodorum, foliar, wheat leaf disc preventative, compared to untreated control
In short: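 Wheat cv. Kanzler leaf discs on agar were sprayed with formulated compound diluted in water and inoculated with P. nodorum spores 2 days later. Discs kept at 20 °C, 75% rh, 12 h light/dark; percent disease control versus untreated scored 5–7 days after application.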

[4] = system: Mycosphaerella arachidis (Cercospora arachidicola); experiment: Mycosphaerella arachidis (Cercospora arachidicola)/Liquid Culture (Early Leaf Spot); type: cell-based; settings: liquid culture, compared to untreated control
In short: (§1)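 Conidia from cryogenic storage were mixed directly into potato dextrose broth, then added to microtiter wells already holding the test compound dissolved in DMSO. Fungal growth in liquid culture was then assessed.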

Phytophthora infestans = experiment: whole plant or invertebrate; type: in vivo; settings: in Solanum lycopersicum, foliar, read-out: control of Phytophthora infestans
[5] = system: Puccinia recondita f. sp. tritici; experiment: Puccinia recondita f. sp. tritici/Wheat/Leaf Disc Preventative (Brown Rust); type: in vivo; settings: foliar, 200 ppm, wheat leaf disc preventative, compared to untreated control, read-out: control of Puccinia recondita f. sp. tritici
[6] = system: Monographella nivalis (Microdochium nivale); experiment: Monographella nivalis (Microdochium nivale)/Liquid Culture (Foot Rot Cereals); type: cell-based; settings: liquid culture, compared to untreated control
In short: as §1

Alternaria solani = experiment: Alternaria solani/Tomato/Leaf Disc (Early Blight); type: in vivo; settings: foliar, tomato leaf disc, compared to untreated control
Method: Tomato leaf disks cv. Baby are placed on agar in multiwell plates (24-well format) and sprayed with the formulated test compound diluted in water. The leaf disks are inoculated with a spore suspension of the fungus 2 days after application. The inoculated leaf disks are incubated at 23° C./21° C. (day/night) and 80% rh (relative humidity) under a light regime of 12/12 h (light/dark) in a climate cabinet and the activity of a compound is assessed as percent disease control compared to untreated when an appropriate level of disease damage appears on untreated check disk leaf disks (5-7 days after application).

Phakopsora pachyrhizi = experiment: Phakopsora pachyrhizi/Soybean/Preventative (Soybean Rust); type: in vivo; settings: 288 h
[7] = system: Thanatephorus cucumeris (Rhizoctonia solani); experiment: Thanatephorus cucumeris (Rhizoctonia solani)/Liquid Culture (Foot Rot, Damping-Off); type: cell-based; settings: liquid culture, compared to untreated control
Method: Mycelia fragments of a newly grown liquid culture of the fungus are directly mixed into nutrient broth (PDB potato dextrose broth). After placing a (DMSO) solution of the test compounds into a microtiter plate (96-well format), the nutrient broth containing the fungal material is added.

[8] = system: Botryotinia fuckeliana (Botrytis cinerea); experiment: Botryotinia fuckeliana (Botrytis cinerea)/Liquid Culture (Gray Mould); type: cell-based; settings: liquid culture, compared to untreated control
Method: Conidia of the fungus from cryogenic storage are directly mixed into nutrient broth (Vogels broth). After placing a (DMSO) solution of test compound into a microtiter plate (96-well format), the nutrient broth containing the fungal spores is added.

[9] = system: Glomerella lagenarium (Colletotrichum lagenarium); experiment: Glomerella lagenarium (Colletotrichum lagenarium)/Liquid Culture (Anthracnose); type: cell-based; settings: Colletotrichum orbiculare, liquid culture, compared to untreated control
[10] = system: Puccinia recondita f. sp. tritici; experiment: Puccinia recondita f. sp. tritici/Wheat/Leaf Disc Curative (Brown Rust); type: in vivo; settings: foliar, wheat leaf disc curative, compared to untreated control
In short: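 Curative leaf-disc test on wheat cv. Kanzler segments on agar, spore-inoculated and kept dark at 19° C, 75% rh; formulated compound in water applied 1 day after inoculation. Incubated at 19° C, 75% rh, 12 h light/12 h dark; percent disease control versus untreated scored 6-8 days after application.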

[11] = system: Blumeria graminis f. sp. tritici (Erysiphe graminis f. sp. tritici); experiment: Blumeria graminis f. sp. tritici/Wheat/Leaf Disc Preventative (Powdery Mildew on Wheat); type: in vivo; settings: foliar, wheat leaf disc preventative, compared to untreated control
In short: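 Wheat cv. Kanzler leaf segments on agar sprayed with formulated compound, inoculated with powdery mildew 1 day later and held at 20° C, 60% rh (24 h dark, then 12 h light/12 h dark). Percent disease control versus untreated scored 6-8 days after application.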

[12] = foliar, soybean leaf disc preventative, compared to untreated control, read-out: control of Phakopsora pachyrhizi

SMILES | pest or weed control at 200 ppm [1] | pest or weed control at 200 ppm (Plasmopara viticola) | pest or weed control at 200 ppm (Pyrenophora teres) | inhibition of growth at 20 ppm [2] | pest or weed control at 200 ppm [3] | inhibition of growth at 20 ppm [4] | pest or weed control at 200 ppm (Phytophthora infestans) | pest or weed control at 200 ppm [5] | inhibition of growth at 20 ppm [6] | melting point | pest or weed control at 200 ppm (Alternaria solani) | inhibition of growth at 20 ppm [8] | inhibition of growth at 20 ppm [9] | pest or weed control at 200 ppm [10] | pest or weed control at 200 ppm [11] | further results
CO/C=C(\Oc1cc(-n2ccc(C#CC3CC3)n2)ccc1C)C(=O)OC [Compound E-1, methyl (Z)-2-[5-[3-(2-cyclopropylethynyl)pyra-zol-1-yl]-2-methyl-phenoxy]-3-methoxy-prop-2-enoate] | ≥ 80% | ≥ 80% | ≥ 80% | ≥ 80% | ≥ 80% | ≥ 80% | ≥ 80% | ≥ 80% | ≥ 80% | 158 to 162 °C | ≥ 80% |  |  |  |  | 
CCOc1cnn(-c2ccc(C)c(O/C(=C\OC)C(=O)OC)c2)c1 [Compound E-52, methyl (Z)-2-[5-(4-ethoxypyrazol-1-yl)-2-methyl-phenoxy]-3-methoxy-prop-2-enoate] | ≥ 80% | ≥ 80% |  | ≥ 80% |  | ≥ 80% | ≥ 80% | ≥ 80% | ≥ 80% |  |  | ≥ 80% | ≥ 80% |  |  | pest or weed control at 200 ppm (Phakopsora pachyrhizi; [12]): ≥ 50%; inhibition of growth at 20 ppm [7]: ≥ 80%
CO/C=C(\Oc1cc(-n2cc(SC(C)C)cn2)ccc1C)C(=O)OC [Compound E-53, methyl (Z)-2-[5-(4-isopropylsulfanylpyrazol-1-yl)-2-methyl-phenoxy]-3-methoxy-prop-2-enoate] | ≥ 80% | ≥ 80% |  | ≥ 80% | ≥ 80% | ≥ 80% | ≥ 80% | ≥ 80% | ≥ 80% |  |  | ≥ 80% | ≥ 80% |  |  | inhibition of growth at 20 ppm [7]: ≥ 80%
CO/C=C(\Oc1cc(-n2ccc(C3(C)CC3)n2)ccc1C)C(=O)OC [Compound E-82, methyl (Z)-3-methoxy-2-[2-methyl-5-[3-(1-methylcyclopropyl)pyra-zol-1-yl]phenoxy]prop-2-enoate] | ≥ 80% | ≥ 80% | ≥ 80% | ≥ 80% | ≥ 80% | ≥ 80% | ≥ 80% | ≥ 80% | ≥ 80% | 83 to 86 °C | ≥ 80% | ≥ 80% | ≥ 80% | ≥ 80% | ≥ 80% | pest or weed control at 200 ppm (Phakopsora pachyrhizi; [12]): ≥ 50%
CO/C=C(\Oc1cc(-n2ccc(Br)n2)ccc1C)C(=O)OC [Compound E-83, methyl (Z)-2-[5-(3-bromopyrazol-1-yl)-2-methyl-phenoxy]-3-methoxy-prop-2-enoate] | ≥ 80% | ≥ 80% | ≥ 80% | ≥ 80% | ≥ 80% | ≥ 80% | ≥ 80% | ≥ 80% | ≥ 80% | 106 to 110 °C | ≥ 80% |  | ≥ 80% |  | ≥ 80% | 
CO/C=C(\Oc1cc(-n2ncc(Br)n2)ccc1C)C(=O)OC [Compound F-1, methyl (Z)-2-[5-(4-bromotriazol-2-yl)-2-methyl-phenoxy]-3-methoxy-prop-2-enoate] | ≥ 80% | ≥ 80% | ≥ 80% | ≥ 80% | ≥ 80% | ≥ 80% | ≥ 80% | ≥ 80% | ≥ 80% |  | ≥ 80% |  | ≥ 80% | ≥ 80% | ≥ 80% | 
CCCc1cnn(-c2ccc(C)c(O/C(=C\OC)C(=O)OC)c2)n1 [Compound F-2, methyl (Z)-3-methoxy-2-[2-methyl-5-(4-propyltriazol-2-yl)phenoxy]prop-2-enoate] | ≥ 80% | ≥ 80% | ≥ 80% | ≥ 80% | ≥ 80% | ≥ 80% | ≥ 80% |  | ≥ 80% |  | ≥ 80% |  | ≥ 80% |  |  | pest or weed control at 0.6 ppm (Phakopsora pachyrhizi; Phakopsora pachyrhizi (Soybean rust), 0.6 ppm): 0%; pest or weed control at 2 ppm (Phakopsora pachyrhizi; Phakopsora pachyrhizi (Soybean rust), 2 ppm): 20%; pest or weed control at 6 ppm (Phakopsora pachyrhizi; Phakopsora pachyrhizi (Soybean rust), 6 ppm): 50%; pest or weed control at 20 ppm (Phakopsora pachyrhizi; Phakopsora pachyrhizi (Soybean rust), 20 ppm): 90%; pest or weed control at 60 ppm (Phakopsora pachyrhizi; Phakopsora pachyrhizi (Soybean rust), 60 ppm): 100%; pest or weed control at 200 ppm (Phakopsora pachyrhizi; Phakopsora pachyrhizi (Soybean rust), read-out: control (%)): 100%
CO/C=C(\Oc1cc(-n2ncc(C3CCCC3)n2)ccc1C)C(=O)OC [Compound F-5, methyl (Z)-2-[5-(4-cyclopentyltriazol-2-yl)-2-methyl-phenoxy]-3-methoxy-prop-2-enoate] | ≥ 80% | ≥ 80% | ≥ 80% | ≥ 80% | ≥ 80% | ≥ 80% | ≥ 80% | ≥ 80% | ≥ 80% |  | ≥ 80% |  | ≥ 80% | ≥ 80% | ≥ 80% | 
CO/C=C(\Oc1cc(-n2nc(Br)c(Br)n2)ccc1C)C(=O)OC [Compound F-10, methyl (Z)-2-[5-(4,5-dibromotriazol-2-yl)-2-methyl-phenoxy]-3-methoxy-prop-2-enoate] | ≥ 80% | ≥ 80% | ≥ 80% | ≥ 80% | ≥ 80% | ≥ 80% | ≥ 80% | ≥ 80% |  |  | ≥ 80% |  | ≥ 80% |  | ≥ 80% | 
CO/C=C(\Oc1cc(-n2ncc(C(C)=NO)n2)ccc1C)C(=O)OC [Compound F-13, methyl (Z)-2-[5-[4-(N-hydroxy-C-methyl-carbonimidoyl)triazol-2-yl]-2-methyl-phenoxy]-3-methoxy-prop-2-enoate] | ≥ 80% | ≥ 80% | ≥ 80% | ≥ 80% | ≥ 80% | ≥ 80% | ≥ 80% | ≥ 80% | ≥ 80% | 146 to 150 °C | ≥ 80% |  | ≥ 80% | ≥ 80% | ≥ 80% | 
